Tests used:
Type IV PDE = experiment: PDE IV inhibitory activity (isozyme partially purified from rat neutrophils, 3H-cAMP substrate); format: biochemical; conditions: rat neutrophil PDE IV, 30° C., 30 minutes, read-out: PDE IV inhibiting action IC50
Method: Type I, III, IV, and V PDE isozymes were prepared to study the PDE inhibitory activities of and selectivities with the compound of the invention [Trends Pharmacol Sci., 12, 19-27 (1991)]. Type I PDE was purchased from Sigma Corp. Type III, IV, and V PDE isozymes were partially purified from platelets (Type III and V) or neutrophils (Type IV) collected from rats. Each enzyme source was homogenized in a buffer (pH 6.5) containing 20 mM bisTris, 2 mM EDTA (i.e., ethlenediamine tetraacetate), 2-mercaptoethanol, 0.001 mM pepstatin and 0.01 mM leupeptin and was centrifuged at 30000×G for 30 minutes to obtain a supernatant, which was applied to an ion exchange column (Q-sepharose first flow, Pharmacia Corp.) and was eluted with 0 to 1M sodium acetate. Partially purified isozymes were identified by observing the inhibitory effects of conventional inhibitors.
Each PDE isozyme and the test compound dissolved in DMSO (i.e., dimethylsulfoxide) were added to 50 mM Tris--HCI buffer containing 5 mM magnesium chloride. ^3 H-cAMP (for type III and IV PDE) or ^3 H-cGMP (for type I and V PDE) were added as substrates and were reacted at 30° C. for 30 minutes. The reaction was terminated by placing the test tube in boiling water of 100° C. for 5 minutes. The nucleotides formed by PDE were broken down to ^3 H-adenosine or ^3 H-guanosine by 5'-nucleotidase. The substrate and reaction product were separated through an ion-exchange column (i.e., QAE sephadex, Pharmacia Corp.)
The eluted ^3 -H-nucleoside was measured for its radioactivity by a liquid scintillation counter. The inhibitory activities of the compound of the present invention are shown by the IC50 value (M). Further, the inhibitory activities of the test samples against type I, III, and V PDE are 1/10 or less than that against Type IV PDE.

[1] = system: TPA induced ear edema in mouse; experiment: TPA induced mouse ear edema assay; format: in vivo, mouse (male ICR); conditions: 0.1 mg applied to right ear immediately after TPA; 6 hour
Method: Male ICR mice, 5 week old, were divided into groups of seven to eight. 2 μg of TPA (phorbor 12-ministate; Sigma Co.) in 20 μl acetone was applied to the inner and outer surface of right ear of each mouse to cause a reaction. 0.1 mg of compound was dissolved in 20 μl of a tetrahydrofuran-methanol mixture (mixture ratio 1:1) and the solution (20 μl) applied to the right ear immediately after TPA treatment. After 6 hour, the animals were sacrificed and right ear was punched out (.phi. […]) and weighed. The effect of comppund.was calculated as % inhibition as follows: [formula]

`COc1ccc(NC2=CC(=O)CCC2)cc1OCc1ccccc1` [Compound No. 20, 3-(3-benzyloxy-4-methoxyanilino)-2-cyclohexen-1-one] showed an IC50 (Type IV PDE) of 44 µM.

For `COc1ccc(NC2=C(C)C(=O)CC2)cc1O[C@@H]1C[C@H]2CC[C@@H]1C2` (racemic) [Compound No. 44, 3-[3-[(1RS,2RS,4SR)-bicyclo[2.2. 1]hept-2-yloxy]-4-methoxyanilino]-2-methyl-2-cyclopenten-1-one], the “% Inhibition of ear edema” value [1] was 74.1% and the IC50 (Type IV PDE) was 0.22 µM.

For `COc1ccc(NC2=C(Cc3ccccc3)C(=O)CCC2)cc1OC1CCCC1` [Compound No. 69, 2-benzyl-3-(3-cyclopentyloxy-4-methoxyanilino)-2-cyclohexen-1-one], the IC50 (Type IV PDE) was 1.1 µM.

For `CCCCCN(C1=CC(=O)CC1)c1ccc(OC)c(OC2CCCC2)c1` [Compound No. 64, 3-(3-cyclopentyloxy-4-methoxy-N-pentylanilino)-2-cyclopenten-1-one], the “% Inhibition of ear edema” value [1] was 52.0% and the IC50 (Type IV PDE) was 4.4 µM.

Compound `COc1ccc(NC2=C(C)C(=O)CC2)cc1OC1CCCC1` [Compound No. 4, 3-(3-cyclopentyloxy-4-methoxyanilino)-2-methyl-2-cyclopenten-1-one] has an IC50 (Type IV PDE) of 0.39 µM.

In the case of `COc1ccc(N(Cc2ccccn2)C2=CC(=O)CC2)cc1OC1CCCC1` [Compound No. 61, 3-[3-cyclopentyloxy-4-methoxy-N-(2-pyridylmethyl)anilino]-2-cyclopenten-1-one], the “% Inhibition of ear edema” value [1] is reported as 66.2% and the IC50 (Type IV PDE) is reported as 3.2 µM.

In the case of `COc1ccc(N(C)C2=CC(=O)CCC2)cc1OC1Cc2ccccc2C1` [Compound No. 65, 3-[3-(2-indanyloxy)-4-methoxy-N-methylanilino]-2-cyclohexen-1-one], the “% Inhibition of ear edema” value [1] is reported as 52.5% and the IC50 (Type IV PDE) is reported as 0.29 µM.

In the case of `COc1ccc(N(Cc2ccccc2)C2=CC(=O)CC2)cc1OC1Cc2ccccc2C1` [Compound No. 77, 3-[N-benzyl-3-(2-indanyloxy)-4-methoxyanilino]-2-cyclopenten-1-one], the “% Inhibition of ear edema” value [1] is reported as 50.9% and the IC50 (Type IV PDE) is reported as 0.91 µM.

For `COc1ccc(N(C)C2=CC(=O)CC2)cc1OC1Cc2ccccc2C1` [Compound No. 76], the “% Inhibition of ear edema” value [1] was 52.7% and the IC50 (Type IV PDE) was 0.13 µM.

For `COc1ccc(NC2=C(C)C(=O)CC2)cc1OC1CCOC1` (stereo not shown) [Compound No. 37, 3-[4-methoxy-3-(3-2,3,4,5-tetrahydrofuranyloxy)anilino]-2-methyl-2-cyclopenten-1-one], the “% Inhibition of ear edema” value [1] was 51.8% and the IC50 (Type IV PDE) was 1.2 µM.

With `COc1ccc(N(Cc2ccc3ccccc3c2)C2=CC(=O)CCC2)cc1OC1Cc2ccccc2C1` [Compound No. 67, 3-[3-(2-indanyloxy)-4-methoxy-N-(2-naphthylmethyl)anilino]-2-cyclohexen-1-one] the “% Inhibition of ear edema” value [1] was 60.8% and the IC50 (Type IV PDE) was 3.8 µM.

`COc1ccc(N(Cc2ccccc2)C2=CC(=O)CC2)cc1OC1CCCC1` [Compound No. 30, 3-(N-benzyl-3-cyclopentyloxy-4-methoxyanilino)-2-cyclopenten-1-one] was tested, and the “% Inhibition of ear edema” value [1] was 78.4% and the IC50 (Type IV PDE) was 2.6 µM.

For `COc1ccc(NC2=C(C)C(=O)CCC2)cc1OCC1CCCC1` [Compound No. 54, 3-(3-cyclopentylmethoxy-4-methoxyanilino)-2-methyl-2-cyclohexen-1-one], the IC50 (Type IV PDE) was 0.73 µM.

Work on `COc1ccc(NC2=C(C)C(=O)CC2)cc1OCC1CCC1` [Compound No. 52, 3-(3-cyclobutylmethoxy-4-methoxyanilino)-2-methyl-2-cyclopenten-1-one] yielded an IC50 (Type IV PDE) of 0.55 µM.

In the case of `COc1ccc(NC2=CC(=O)CC2)cc1OCC1CCCC1` [Compound No. 40, 3-(3-cyclopentylmethoxy-4-methoxyanilino)-2-cyclopenten-1-one], the IC50 (Type IV PDE) is reported as 4 µM.

With `COc1ccc(N(Cc2ccccc2)C2=C(C)C(=O)CC2)cc1OC1CCCC1` [Compound No. 71, 3-(N-benzyl-3-cyclopentyloxy-4-methoxyanilino)-2-methyl-2-cyclopenten-1-one] the IC50 (Type IV PDE) was 8.2 µM.

Work on `COc1ccc(NC2=CC(=O)CC2)cc1OC1CCOC1` (stereo not shown) [Compound No. 36, 3-[4-methoxy-3-(3-2,3,4,5-tetrahydrofuranyloxy)anilino]-2-cyclopenten-1-one] yielded an IC50 (Type IV PDE) of 8.9 µM.

In the case of `COc1ccc(NC2=CC(=O)CC2)cc1OCCc1cccc2ccccc12` [compound 42, 3-[4-methoxy-3-[2-(1-naphthyl)ethoxy]anilino]-2-cyclopenten-1-one], the IC50 (Type IV PDE) is reported as 9.6 µM.

`COc1ccc(NC2=CC(=O)CC2)cc1OCCC1Cc2ccccc2C1` [Compound No. 34, 3-[3-[2-(2-indanyl)ethoxy]-4-methoxyanilino]-2-cyclopenten-1-one] gave an IC50 (Type IV PDE) of 1.8 µM.

With `COc1ccc(NC2=CC(=O)CC2)cc1OCC1CCC1` [Compound No. 51, 3-(3-cyclobutylmethoxy-4-methoxyanilino)-2-cyclopenten-1-one] the IC50 (Type IV PDE) was 1.9 µM.

With `COc1ccc(NC2=CC(=O)CC(c3ccccc3)C2)cc1OC1CCCC1` (stereo not shown) [Compound No. 39, 3-(3-cyclopentyloxy-4-methoxyanilino)-5-phenyl-2-cyclohexen-1-one] the IC50 (Type IV PDE) was 3.9 µM.

`COc1ccc(NC2=CC(=O)CC2)cc1OCC1CC1` [Compound No. 15, 3-(3-cyclopropylmethoxy-4-methoxyanilino)-2-cyclopenten-1-one] was tested, and the IC50 (Type IV PDE) was 7.1 µM.

In the case of `COc1ccc(NC2=C(C)C(=O)CC2)cc1OCCc1cccc2ccccc12` [Compound No. 43, 3-[4-methoxy-3-[2-(1-naphthyl)ethoxy]anilino]-2-methyl-2-cyclopenten-1-one], the IC50 (Type IV PDE) is reported as 1.3 µM.

Work on `COc1ccc(N(Cc2ccc3ccccc3n2)C2=C(C)C(=O)CC2)cc1OC1CCCC1` [Compound No. 72, 3-[3-cyclopentyloxy-4-methoxy-N-(2-quinolylemethyl)anilino]-2-methyl-2-cyclopenten-1-one] yielded an IC50 (Type IV PDE) of 3 µM.

Work on `COc1ccc(NC2=C(CN3CCOCC3)C(=O)CC2)cc1OC1CCCC1` [Compound No. 25, 3-(3-cyclopentyloxy-4-methoxyanilino)-2-(4-morpholinomethyl)-2-cyclopenten-1-one] yielded an IC50 (Type IV PDE) of 17 µM.

In the case of `COc1ccc(N(Cc2ccc3ccccc3c2)C2=C(C)C(=O)CC2)cc1OC1Cc2ccccc2C1` [Compound No. 74, 3-[3-(2-indanyloxy)-4-methoxy-N-(2-naphthylmethyl)anilino]-2-methyl-2-cyclopenten-1-one], the IC50 (Type IV PDE) is reported as 3.5 µM.

In the case of `COc1ccc(NC2=C(Cl)C(=O)CC2)cc1OC1CCCC1` [Compound No. 6, 2-chloro-3-(3-cyclopentyloxy-4-methoxyanilino)-2-cyclopenten-1-one], the IC50 (Type IV PDE) is reported as 0.54 µM.

Compound `COc1ccc(NC2=CC(=O)C(C)(C)CC2)cc1OC1CCCC1` [Compound No. 38, 3-(3-cyclopentyloxy-4-methoxyanilino)-6,6-dimethyl-2-cyclohexen-1-one] has an IC50 (Type IV PDE) of 17 µM.

`COc1ccc(N(C(C)=O)C2=CC(=O)CC2)cc1OC1CCCC1` [Compound No. 29, 3-(N-acetyl-3-cyclopentyloxy-4-methoxyanilino)-2-cyclopenten-1-one] showed an IC50 (Type IV PDE) of 48 µM.

For `COc1ccc(NC2=C(C)C(=O)CCC2)cc1O[C@@H]1C[C@H]2CC[C@@H]1C2` (racemic) [Compound No. 46, 3-[3-[(1RS,2RS,4SR)-bicyclo[2.2. 1]hept-2-yloxy]-4-methoxyanilino]-2-methyl-2-cyclohexen-1-one], the IC50 (Type IV PDE) was 0.26 µM.

For `COc1ccc(NC2=CC(=O)CC2)cc1OCCc1ccccc1` [Compound No. 11, 3-(4-methoxy-3-phenethyloxyanilino)-2-cyclopenten-1-one], the IC50 (Type IV PDE) was 4 µM.

Compound `COc1ccc(NC2=C(C)C(=O)CC2)cc1OCC1CCCC1` [Compound No. 41, 3-(3-cyclopentylmethoxy-4-methoxyanilino)-2-methyl-2-cyclopenten-1-one] has an IC50 (Type IV PDE) of 0.94 µM.

`COc1ccc(NC2=CC(=O)CC(C)(C)C2)cc1OC1CCCC1` [Compound No. 3, 3-(3-cycloientyloxy-4-methoxyanilino)-5,5-dimethyl-2-cyclohexen-1-one] was tested, and the IC50 (Type IV PDE) was 4.9 µM.

`COc1ccc(N(C)C2=C(C)C(=O)CC2)cc1OC1CCCC1` [Compound No. 70, 3-(3-cyclopentyloxy-4-methoxy-N-methylanilino)-2-methyl-2-cyclopenten-1-one] gave an IC50 (Type IV PDE) of 3.1 µM.

`COc1ccc(NC2=CC(=O)CC(C)C2)cc1OC1CCCC1` (stereo not shown) [Compound No. 5, 3-(3-cycloientyloxy-4-methoxyanilino)-5-methyl-2-cyclohexen-1-one] was tested, and the IC50 (Type IV PDE) was 2.2 µM.

Compound `COc1ccc(NC2=C(CN(C)C)C(=O)CC2)cc1OC1CCCC1` [Compound No. 24, 3-(3-cyclopentyloxy-4-methoxyanilino)-2-dimethylaminomethyl-2-cyclopenten-1-one] has an IC50 (Type IV PDE) of 61 µM.

For `CCCCOc1cc(NC2=C(C)C(=O)CC2)ccc1OC` [Compound No. 18, 3-(3-butoxy-4-methoxyanilino)-2-methyl-2-cyclopenten-1-one], the IC50 (Type IV PDE) was 1.7 µM.

From patent publication US6235736A, “3-anilino-2-cycloalkenone derivatives” (Nikken Chemicals Co., Ltd., priority 1997, dated 2001)
